In patent publication US20260022142A1, “MACROCYCLIC IMMUNOMODULATORS” (Bristol-Myers Squibb Company, priority 2022, published 2026):
Bridge positions count the residues as written; N and C are the ends. Square brackets hold non-standard residues; d marks the D form. Peptide text beside a SMILES is read from it. * marks the point of attachment. Phe(4-CH2CH2COOH) = N[C@@H](Cc1ccc(CCC(=O)O)cc1)C(=O)O; Trp(βS-Me) = C[C@@H](c1c[nH]c2ccccc12)[C@H](N)C(=O)O; Bip = N[C@@H](Cc1ccc(-c2ccccc2)cc1)C(=O)O; Phe(3-Me) = Cc1cccc(C[C@H](N)C(=O)O)c1; Val(3-OH) = CC(C)(O)[C@H](N)C(=O)O; Cha = N[C@@H](CC1CCCCC1)C(=O)O; Cit = NC(=O)NCCC[C@H](N)C(=O)O; Carboxymethyl = O=C(O)C*; Orn = NCCC[C@H](N)C(=O)O; Aun = NCCCCCCCCCCC(=O)O; Dab = NCC[C@H](N)C(=O)O; Ac3c = NC1(C(=O)O)CC1

Target: T1, PD-1/PD-L1 interaction (PE-labeled human PD-L1-Ig binding to Jurkat cell line over-expressing human PD-1) (Homo sapiens, UniProt Q15116)
T1 construct: expressed in transfected cells; host or cells: Jurkat
Experiment: Jurkat-PD-1 Cell Binding High-Content Screening Assay (CBA)
Assay type: cell-based
Details: Jurkat cell line over-expressing human PD-1; PE-labeled PD-L1-Ig 20 nM final; read-out: Jurkat hPD1-PDL1 IC50
In short: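 Binding of fluorescent PD-L1-Ig (phycoerythrin on Ig tag, 20 nM final, 1 h) measured by high-content imaging of fixed, Hoechst-counterstained Jurkat-hPD-1 cells. Compound added 2 h at 37° C beforehand, in DMEM with 10% fetal calf serum.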

T1 sequence (Q15116 25-288): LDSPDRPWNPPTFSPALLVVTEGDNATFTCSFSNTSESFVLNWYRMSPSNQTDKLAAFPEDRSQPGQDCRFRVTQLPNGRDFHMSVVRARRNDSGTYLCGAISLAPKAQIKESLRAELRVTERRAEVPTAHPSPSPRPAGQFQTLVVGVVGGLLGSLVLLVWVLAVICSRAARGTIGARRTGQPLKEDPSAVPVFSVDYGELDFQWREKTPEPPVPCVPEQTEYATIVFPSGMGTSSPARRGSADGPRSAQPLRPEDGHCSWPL

Row | Compound | IC50
1 | Cc1cccc(C[C@@H]2NC(=O)[C@H](CC(=O)O)NC(=O)[C@H](Cc3ccc(OCC(=O)O)cc3)NC(=O)[C@H](CCCNC(=N)N)NC(=O)CSC[C@@H](C(=O)N[C@@H](CCN)C(=O)NCCCCCCCCCCC(=O)O)NC(=O)[C@H](CCC(N)=O)NC(=O)[C@H](C(C)C)NC(=O)[C@H](CC3CCCCC3)NC(=O)[C@H](CCN)NC(=O)[C@@H](CC(C)C)NC(=O)[C@H](CCCN)NC(=O)[C@H](Cc3ccc(OCC(=O)O)cc3)NC(=O)[C@H](Cc3ccc(-c4ccccc4)cc3)NC(=O)[C@H](Cc3ccc(CCC(=O)O)cc3)NC2=O)c1 [Compound 2129] ({CH2CO}-RY(Carboxymethyl)D[Phe(3-Me)][Phe(4-CH2CH2COOH)][Bip]Y(Carboxymethyl)[Orn][dL][Dab][Cha]VQC[Dab][Aun]-OH; thioether N-14) | 6 nM
2 | Cc1cccc(C[C@@H]2NC(=O)[C@H](CC(=O)O)NC(=O)[C@H](Cc3ccc(OCC(=O)O)cc3)NC(=O)[C@H](CCCNC(=N)N)NC(=O)CSC[C@@H](C(=O)N[C@@H](CCN)C(=O)NCCCCCCCCCCC(=O)O)NC(=O)[C@H]([C@@H](C)O)NC(=O)[C@H](C(C)C)NC(=O)[C@H](CC3CCCCC3)NC(=O)[C@H](CCN)NC(=O)[C@@H](CC(C)C)NC(=O)[C@H](CCCN)NC(=O)[C@H](Cc3ccc(O)cc3)NC(=O)[C@H](Cc3ccc(-c4ccccc4)cc3)NC(=O)[C@H](Cc3ccc(OCC(=O)O)cc3)NC2=O)c1 [Compound 2130] ({CH2CO}-RY(Carboxymethyl)D[Phe(3-Me)]Y(Carboxymethyl)[Bip]Y[Orn][dL][Dab][Cha]VTC[Dab][Aun]-OH; thioether N-14) | 15.7 nM
3 | Cc1cccc(C[C@@H]2NC(=O)[C@H](CC(=O)O)NC(=O)[C@H](Cc3ccc(OCC(=O)O)cc3)NC(=O)[C@H](CCCNC(=N)N)NC(=O)CSC[C@@H](C(=O)N[C@@H](CCN)C(=O)NCCCCCCCCCCC(=O)O)NC(=O)[C@H](CCC(N)=O)NC(=O)[C@H](C(C)C)NC(=O)[C@H](CC3CCCCC3)NC(=O)[C@H](CCN)NC(=O)[C@@H](CC(C)C)NC(=O)[C@H](CCCN)NC(=O)[C@H](Cc3ccc(O)cc3)NC(=O)[C@H](Cc3ccc(-c4ccccc4)cc3)NC(=O)[C@H](Cc3ccc(CCC(=O)O)cc3)NC2=O)c1 [Compound 2131] ({CH2CO}-RY(Carboxymethyl)D[Phe(3-Me)][Phe(4-CH2CH2COOH)][Bip]Y[Orn][dL][Dab][Cha]VQC[Dab][Aun]-OH; thioether N-14) | 5.8 nM
4 | Cc1cccc(C[C@@H]2NC(=O)[C@H](CC(=O)O)NC(=O)[C@H](Cc3ccc(OCC(=O)O)cc3)NC(=O)[C@H](CCCNC(=N)N)NC(=O)CSC[C@@H](C(=O)NC3(C(=O)NCCCCCCCCCCC(=O)O)CC3)NC(=O)[C@H]([C@@H](C)O)NC(=O)[C@H](C(C)C)NC(=O)[C@H](CC3CCCCC3)NC(=O)[C@H](CCN)NC(=O)[C@@H](CC(C)C)NC(=O)[C@H](CCCN)NC(=O)[C@H](Cc3ccc(OCC(=O)O)cc3)NC(=O)[C@H](Cc3ccc(-c4ccccc4)cc3)NC(=O)[C@H](Cc3ccc(CCC(=O)O)cc3)NC2=O)c1 [Compound 2132] ({CH2CO}-RY(Carboxymethyl)D[Phe(3-Me)][Phe(4-CH2CH2COOH)][Bip]Y(Carboxymethyl)[Orn][dL][Dab][Cha]VTC[Ac3c][Aun]-OH; thioether N-14) | 11.5 nM
5 | CC(C)C[C@H]1NC(=O)[C@H](CCCN)NC(=O)[C@H](Cc2ccc(O)cc2)NC(=O)[C@H](Cc2ccc(-c3ccccc3)cc2)NC(=O)[C@H](C(C)C)NC(=O)[C@H]([C@@H](C)c2c[nH]c3ccccc23)NC(=O)[C@H](CC(=O)O)NC(=O)[C@H](Cc2ccc(OCC(=O)O)cc2)NC(=O)[C@H](CCCNC(=N)N)NC(=O)CSC[C@@H](C(=O)NC2(C(=O)NCCCCCCCCCCC(=O)O)CC2)NC(=O)[C@H]([C@@H](C)O)NC(=O)[C@H](C(C)C)NC(=O)[C@H](CC2CCCCC2)NC(=O)[C@H](CCN)NC1=O [Compound 2133] ({CH2CO}-RY(Carboxymethyl)D[Trp(βS-Me)]V[Bip]Y[Orn][dL][Dab][Cha]VTC[Ac3c][Aun]-OH; thioether N-14) | 58.8 nM
6 | CC(C)C[C@H]1NC(=O)[C@H](CCCN)NC(=O)[C@H](CCCNC(N)=O)NC(=O)[C@H](Cc2ccc(-c3ccccc3)cc2)NC(=O)[C@H](C(C)C)NC(=O)[C@H]([C@@H](C)c2c[nH]c3ccccc23)NC(=O)[C@H](CC(=O)O)NC(=O)[C@H](Cc2ccc(OCC(=O)O)cc2)NC(=O)[C@H](CCCNC(=N)N)NC(=O)CSC[C@@H](C(=O)NC2(C(=O)NCCCCCCCCCCC(=O)O)CC2)NC(=O)[C@H]([C@@H](C)O)NC(=O)[C@H](C(C)C)NC(=O)[C@H](CC2CCCCC2)NC(=O)[C@H](CCN)NC1=O [Compound 2134] ({CH2CO}-RY(Carboxymethyl)D[Trp(βS-Me)]V[Bip][Cit][Orn][dL][Dab][Cha]VTC[Ac3c][Aun]-OH; thioether N-14) | 38.5 nM
7 | CC(C)C[C@H]1NC(=O)[C@H](CCCN)NC(=O)[C@H](Cc2ccc(OCC(=O)O)cc2)NC(=O)[C@H](Cc2ccc(-c3ccccc3)cc2)NC(=O)[C@H](Cc2ccc(OCC(=O)O)cc2)NC(=O)[C@H]([C@@H](C)c2c[nH]c3ccccc23)NC(=O)[C@H](CC(=O)O)NC(=O)[C@H](Cc2ccc(OCC(=O)O)cc2)NC(=O)[C@H](CCCNC(=N)N)NC(=O)CSC[C@@H](C(=O)NC2(C(=O)NCCCCCCCCCCC(=O)O)CC2)NC(=O)[C@H]([C@@H](C)O)NC(=O)[C@H](C(C)C)NC(=O)[C@H](CC2CCCCC2)NC(=O)[C@H](CCN)NC1=O [Compound 2135] ({CH2CO}-RY(Carboxymethyl)D[Trp(βS-Me)]Y(Carboxymethyl)[Bip]Y(Carboxymethyl)[Orn][dL][Dab][Cha]VTC[Ac3c][Aun]-OH; thioether N-14) | 68.8 nM
8 | Cc1cccc(C[C@@H]2NC(=O)[C@H](CC(=O)O)NC(=O)[C@H](Cc3ccc(OCC(=O)O)cc3)NC(=O)[C@H](CCCNC(=N)N)NC(=O)CSC[C@@H](C(=O)NC3(C(=O)NCCCCCCCCCCC(=O)O)CC3)NC(=O)[C@H](CCCN)NC(=O)[C@H](C(C)C)NC(=O)[C@H](CC3CCCCC3)NC(=O)[C@H](CCN)NC(=O)[C@@H](CC(C)C)NC(=O)[C@H](CCCN)NC(=O)[C@H](Cc3ccc(OCC(=O)O)cc3)NC(=O)[C@H](Cc3ccc(-c4ccccc4)cc3)NC(=O)[C@H](Cc3ccc(OCC(=O)O)cc3)NC2=O)c1 [Compound 2136] ({CH2CO}-RY(Carboxymethyl)D[Phe(3-Me)]Y(Carboxymethyl)[Bip]Y(Carboxymethyl)[Orn][dL][Dab][Cha]V[Orn]C[Ac3c][Aun]-OH; thioether N-14) | 3.1 nM
9 | Cc1cccc(C[C@@H]2NC(=O)[C@H](CC(=O)O)NC(=O)[C@H](Cc3ccc(OCC(=O)O)cc3)NC(=O)[C@H](CCCNC(=N)N)NC(=O)CSC[C@@H](C(=O)NC3(C(=O)NCCCCCCCCCCC(=O)O)CC3)NC(=O)[C@H](CCC(N)=O)NC(=O)[C@H](C(C)C)NC(=O)[C@H](CC3CCCCC3)NC(=O)[C@H](CCN)NC(=O)[C@@H](CC(C)C)NC(=O)[C@H](CCCN)NC(=O)[C@H](Cc3ccc(OCC(=O)O)cc3)NC(=O)[C@H](Cc3ccc(-c4ccccc4)cc3)NC(=O)[C@H](Cc3ccc(OCC(=O)O)cc3)NC2=O)c1 [Compound 2137] ({CH2CO}-RY(Carboxymethyl)D[Phe(3-Me)]Y(Carboxymethyl)[Bip]Y(Carboxymethyl)[Orn][dL][Dab][Cha]VQC[Ac3c][Aun]-OH; thioether N-14) | 9.1 nM
10 | CC(C)C[C@H]1NC(=O)[C@H](CCCN)NC(=O)[C@H](Cc2ccc(OCC(=O)O)cc2)NC(=O)[C@H](Cc2ccc(-c3ccccc3)cc2)NC(=O)[C@H](Cc2ccc(OCC(=O)O)cc2)NC(=O)[C@H]([C@@H](C)c2c[nH]c3ccccc23)NC(=O)[C@H](CC(=O)O)NC(=O)[C@H](Cc2ccc(OCC(=O)O)cc2)NC(=O)[C@H](CCCNC(=N)N)NC(=O)CSC[C@@H](C(=O)N[C@@H](CCN)C(=O)NCCCCCCCCCCC(=O)O)NC(=O)[C@H]([C@@H](C)O)NC(=O)[C@H](C(C)C)NC(=O)[C@H](CC2CCCCC2)NC(=O)[C@H](CCN)NC1=O [Compound 2138] ({CH2CO}-RY(Carboxymethyl)D[Trp(βS-Me)]Y(Carboxymethyl)[Bip]Y(Carboxymethyl)[Orn][dL][Dab][Cha]VTC[Dab][Aun]-OH; thioether N-14) | 109 nM
11 | Cc1cccc(C[C@@H]2NC(=O)[C@H](CC(=O)O)NC(=O)[C@H](Cc3ccc(OCC(=O)O)cc3)NC(=O)[C@H](CCCNC(=N)N)NC(=O)CSC[C@@H](C(=O)N[C@@H](CCN)C(=O)NCCCCCCCCCCC(=O)O)NC(=O)[C@H]([C@@H](C)O)NC(=O)[C@H](C(C)C)NC(=O)[C@H](CC3CCCCC3)NC(=O)[C@H](CCN)NC(=O)[C@@H](CC(C)C)NC(=O)[C@H](C)NC(=O)[C@H](C(C)(C)O)NC(=O)[C@H](Cc3ccc(-c4ccccc4)cc3)NC(=O)[C@H](Cc3ccc(OCC(=O)O)cc3)NC2=O)c1 [Compound 2139] ({CH2CO}-RY(Carboxymethyl)D[Phe(3-Me)]Y(Carboxymethyl)[Bip][Val(3-OH)]A[dL][Dab][Cha]VTC[Dab][Aun]-OH; thioether N-14) | 21.1 nM
12 | Cc1cccc(C[C@@H]2NC(=O)[C@H](CC(=O)O)NC(=O)[C@H](Cc3ccc(OCC(=O)O)cc3)NC(=O)[C@H](CCCNC(=N)N)NC(=O)CSC[C@@H](C(=O)N[C@@H](CCN)C(=O)NCCCCCCCCCCC(=O)O)NC(=O)[C@H](CCC(N)=O)NC(=O)[C@H](C(C)C)NC(=O)[C@H](CC3CCCCC3)NC(=O)[C@H](CCN)NC(=O)[C@@H](CC(C)C)NC(=O)[C@H](CCCN)NC(=O)[C@H](C(C)(C)O)NC(=O)[C@H](Cc3ccc(-c4ccccc4)cc3)NC(=O)[C@H](Cc3ccc(OCC(=O)O)cc3)NC2=O)c1 [Compound 2140] ({CH2CO}-RY(Carboxymethyl)D[Phe(3-Me)]Y(Carboxymethyl)[Bip][Val(3-OH)][Orn][dL][Dab][Cha]VQC[Dab][Aun]-OH; thioether N-14) | 11.6 nM
